Data: paper PMC4311625, “Structural determinants for binding to angiotensin converting enzyme 2 (ACE2) and angiotensin receptors 1 and 2” (Frontiers in Pharmacology, 2015)
Peptide text beside a SMILES is read from it.

biological target: ACE2 (Homo sapiens, UniProt Q9BYF1); assay: ACE2 quenched fluorescence substrate (QFS) inhibition assay; assay type: biochemical; conditions: pH 6.5, read-out: ACE2 inhibition of terminally modified IHPF analogs, 100 μM (Table 3)
Procedure: Angiotensin converting enzyme 2 QFS assays were performed for 1 h in 50 uM QFS, 1 M NaCl, 100 mM Tris-Cl, pH 6.5 at 37∘C on a BMG LabTechnologies (Offenburg, Germany), FLUOStar Optima in a 96 well-plate. Subsequent data analysis determined the inhibition of native AngII, its analogs and C-terminal peptides compared to the ACE2 QFS substrate [MCA-APK(DNP)-OH, [Vickers et al., 2002]]. […] Three controls were included in each ACE2 QFS assay; AngII (100 and 10 μM), IHPF (100 μM) and a known ACE2 inhibitor (1 nM; Millennium Pharmaceuticals, Cambridge, MA, USA). QFS assay results were accepted when ACE2 inhibition by AngII (10 μM) was 80 ± 5%, IHPF was 65 ± –5% and the ([Qian et al., 1999]) ‘Millennium Inhibitor’ was 70 ± –5%. Acceptable coefficients of variation (CV; standard deviation/mean × 100) for sample triplicates were <7%.
A library of 40 tetrapeptides based on the four C-terminal residues of Ang II (Ile-His-Pro-Phe/IHPF) was generated and screened for ACE2 binding at 100 μM in order to identify key residues of the C-terminus of Ang II involved in binding to the ACE2 active site. […] Several substitutions (Val, Tyr, Ala, Gly, Phe, Trp, Pro, His, Ile, and Leu) were made in order to further probe the highly hydrophobic and cyclic specificity of the C-terminus of Ang II. A β-napthalene amino acid (Nth) derivative was used as a highly hydrophobic non-natural cyclic residue substitute, and Arg and Lys were substituted for histidine at the second position from the N-terminus of the tetrapeptide to determine if positive charge or other structural or positional requirements were important.

Chain of ACE2 (Q9BYF1 18-805, species assumed): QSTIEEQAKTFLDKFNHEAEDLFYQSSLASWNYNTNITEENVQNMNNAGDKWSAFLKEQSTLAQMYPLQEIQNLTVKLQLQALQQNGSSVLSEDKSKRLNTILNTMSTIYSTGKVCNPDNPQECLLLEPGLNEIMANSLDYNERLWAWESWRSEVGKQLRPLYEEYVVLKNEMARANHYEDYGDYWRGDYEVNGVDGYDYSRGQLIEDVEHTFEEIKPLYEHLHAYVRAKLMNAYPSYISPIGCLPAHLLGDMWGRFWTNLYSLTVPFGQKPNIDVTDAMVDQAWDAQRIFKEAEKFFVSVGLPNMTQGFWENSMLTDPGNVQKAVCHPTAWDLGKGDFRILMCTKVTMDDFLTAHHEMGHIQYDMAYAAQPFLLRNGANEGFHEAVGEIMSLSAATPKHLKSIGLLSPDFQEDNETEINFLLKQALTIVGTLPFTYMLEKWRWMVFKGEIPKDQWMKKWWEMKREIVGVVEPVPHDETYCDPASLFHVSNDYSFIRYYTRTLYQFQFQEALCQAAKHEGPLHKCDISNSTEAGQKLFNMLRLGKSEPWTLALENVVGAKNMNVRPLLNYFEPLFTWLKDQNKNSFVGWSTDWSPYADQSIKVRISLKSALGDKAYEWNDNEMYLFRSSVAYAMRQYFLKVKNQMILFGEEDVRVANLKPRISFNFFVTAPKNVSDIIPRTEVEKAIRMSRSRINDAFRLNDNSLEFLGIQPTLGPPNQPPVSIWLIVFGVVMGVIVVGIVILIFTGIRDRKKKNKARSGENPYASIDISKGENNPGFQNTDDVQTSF

Row | SMILES | inhibition at 100 µM
1 | CC[C@H](C)[C@H](N)C(=O)N[C@@H](Cc1ccc(O)cc1)C(=O)N1CCC[C@H]1C(=O)N[C@@H](Cc1ccccc1)C(N)=O [C-amidated IYPF] (H-IYPF-NH2) | 8%
2 | NC(=O)[C@H](Cc1ccccc1)NC(=O)[C@@H]1CCCN1C(=O)[C@H](Cc1ccc(O)cc1)NC(=O)[C@@H]1CCCN1 [C-amidated PYPF] (H-PYPF-NH2) | 33%
3 | CC(C)[C@H](N)C(=O)N[C@@H](Cc1ccc(O)cc1)C(=O)N1CCC[C@H]1C(=O)N[C@@H](Cc1ccccc1)C(N)=O [C-amidated VYPF] (H-VYPF-NH2) | 25%

same assay, conditions: peptide 100 μM; 50 uM QFS MCA-APK(DNP)-OH, 1 M NaCl, 100 mM Tris-Cl pH 6.5, 37 °C, 1 h, fluorescence; triplicate; read-out: ACE2 inhibition of single substitution analogs of the C-terminal of AngII (Table 1)

Row | SMILES | inhibition at 100 µM
4 | C[C@H](N)C(=O)N[C@@H](Cc1c[nH]cn1)C(=O)N1CCC[C@H]1C(=O)N[C@@H](Cc1ccccc1)C(=O)O [AHPF] (H-AHPF-OH) | 59%
5 | N[C@@H](Cc1ccccc1)C(=O)N[C@@H](Cc1c[nH]cn1)C(=O)N1CCC[C@H]1C(=O)N[C@@H](Cc1ccccc1)C(=O)O [FHPF] (H-FHPF-OH) | 48%
6 | N[C@@H](Cc1c[nH]cn1)C(=O)N[C@@H](Cc1c[nH]cn1)C(=O)N1CCC[C@H]1C(=O)N[C@@H](Cc1ccccc1)C(=O)O [HHPF] (H-HHPF-OH) | 12%
7 | CC[C@H](C)[C@H](N)C(=O)N[C@@H](C)C(=O)N1CCC[C@H]1C(=O)N[C@@H](Cc1ccccc1)C(=O)O [IAPF] (H-IAPF-OH) | 37%
8 | CC[C@H](C)[C@H](N)C(=O)N[C@@H](Cc1ccccc1)C(=O)N1CCC[C@H]1C(=O)N[C@@H](Cc1ccccc1)C(=O)O [IFPF] (H-IFPF-OH) | 0%
9 | CC[C@H](C)[C@H](N)C(=O)NCC(=O)N1CCC[C@H]1C(=O)N[C@@H](Cc1ccccc1)C(=O)O [IGPF] (H-IGPF-OH) | 39%
10 | CC[C@H](C)[C@H](N)C(=O)N[C@@H](Cc1c[nH]cn1)C(=O)NCC(=O)N[C@@H](Cc1ccccc1)C(=O)O [IHGF] (H-IHGF-OH) | 0%
11 | CC[C@H](C)[C@H](N)C(=O)N[C@@H](Cc1c[nH]cn1)C(=O)N[C@@H](Cc1c[nH]cn1)C(=O)N[C@@H](Cc1ccccc1)C(=O)O [IHHF] (H-IHHF-OH) | 14%
12 | CC[C@H](C)[C@H](N)C(=O)N[C@@H](Cc1c[nH]cn1)C(=O)N[C@H](C(=O)N[C@@H](Cc1ccccc1)C(=O)O)[C@@H](C)CC [IHIF] (H-IHIF-OH) | 44%
13 | CC[C@H](C)[C@H](N)C(=O)N[C@@H](Cc1c[nH]cn1)C(=O)N[C@@H](CC(C)C)C(=O)N[C@@H](Cc1ccccc1)C(=O)O [IHLF] (H-IHLF-OH) | 0%
14 | CC[C@H](C)[C@H](N)C(=O)N[C@@H](Cc1c[nH]cn1)C(=O)N1CCC[C@H]1C(=O)N[C@@H](Cc1c[nH]cn1)C(=O)O [IHPH] (H-IHPH-OH) | 54%
15 | CC[C@H](C)[C@H](N)C(=O)N[C@@H](Cc1c[nH]cn1)C(=O)N1CCC[C@H]1C(=O)N[C@H](C(=O)O)[C@@H](C)CC [IHPI] (H-IHPI-OH) | 36%
16 | CC[C@H](C)[C@H](N)C(=O)N[C@@H](Cc1c[nH]cn1)C(=O)N1CCC[C@H]1C(=O)N[C@H](C(=O)O)C(C)C [IHPV] (H-IHPV-OH) | 18%
17 | CC[C@H](C)[C@H](N)C(=O)N[C@@H](Cc1c[nH]cn1)C(=O)N1CCC[C@H]1C(=O)N[C@@H](Cc1ccc(O)cc1)C(=O)O [IHPY] (H-IHPY-OH) | 50%
18 | CC[C@H](C)[C@H](N)C(=O)N[C@@H](Cc1c[nH]cn1)C(=O)N[C@H](C(=O)N[C@@H](Cc1ccccc1)C(=O)O)C(C)C [IHVF] (H-IHVF-OH) | 77%
19 | CC[C@H](C)[C@H](N)C(=O)N[C@@H](Cc1c[nH]cn1)C(=O)N[C@@H](Cc1c[nH]c2ccccc12)C(=O)N[C@@H](Cc1ccccc1)C(=O)O [IHWF] (H-IHWF-OH) | 0%
20 | CC[C@H](C)[C@H](N)C(=O)N[C@@H](Cc1c[nH]cn1)C(=O)N[C@@H](Cc1ccc(O)cc1)C(=O)N[C@@H](Cc1ccccc1)C(=O)O [IHYF] (H-IHYF-OH) | 1%
21 | CC[C@H](C)[C@H](N)C(=O)N[C@H](C(=O)N1CCC[C@H]1C(=O)N[C@@H](Cc1ccccc1)C(=O)O)[C@@H](C)CC [IIPF] (H-IIPF-OH) | 32%
22 | CC[C@H](C)[C@H](N)C(=O)N[C@@H](CCCCN)C(=O)N1CCC[C@H]1C(=O)N[C@@H](Cc1ccccc1)C(=O)O [IKPF] (H-IKPF-OH) | 28%

Results, then the molecule that gave them:

Row | inhibition at 100 µM | SMILES
23 | 0% | NCC(=O)N[C@@H](Cc1c[nH]cn1)C(=O)N1CCC[C@H]1C(=O)N[C@@H](Cc1ccccc1)C(=O)O [GHPF] (H-GHPF-OH)
24 | 19% | CC[C@H](C)[C@H](N)C(=O)N[C@@H](Cc1c[nH]cn1)C(=O)N[C@@H](C)C(=O)N[C@@H](Cc1ccccc1)C(=O)O [IHAF] (H-IHAF-OH)
25 | 0% | CC[C@H](C)[C@H](N)C(=O)N[C@@H](Cc1c[nH]cn1)C(=O)N[C@@H](Cc1ccccc1)C(=O)N[C@@H](Cc1ccccc1)C(=O)O [IHFF] (H-IHFF-OH)
26 | 44% | CC[C@H](C)[C@H](N)C(=O)N[C@@H](Cc1c[nH]cn1)C(=O)N1CCC[C@H]1C(=O)N[C@@H](C)C(=O)O [IHPA] (H-IHPA-OH)
27 | 62% | CC[C@H](C)[C@H](N)C(=O)N[C@@H](Cc1c[nH]cn1)C(=O)N1CCC[C@H]1C(=O)N[C@@H](Cc1ccccc1)C(=O)O [IHPF, Ile-His-Pro-Phe, reference compound] (H-IHPF-OH)
28 | 41% | CC[C@H](C)[C@H](N)C(=O)N[C@@H](Cc1c[nH]cn1)C(=O)N1CCC[C@H]1C(=O)NCC(=O)O [IHPG] (H-IHPG-OH)
29 | 48% | CC[C@H](C)[C@H](N)C(=O)N[C@@H](Cc1c[nH]cn1)C(=O)N1CCC[C@H]1C(=O)N[C@@H](CC(C)C)C(=O)O [IHPL] (H-IHPL-OH)
30 | 57% | CC[C@H](C)[C@H](N)C(=O)N[C@@H](Cc1c[nH]cn1)C(=O)N1CCC[C@H]1C(=O)N[C@@H](Cc1c[nH]c2ccccc12)C(=O)O [IHPW] (H-IHPW-OH)
31 | 0% | CC[C@H](C)[C@H](N)C(=O)N1CCC[C@H]1C(=O)N1CCC[C@H]1C(=O)N[C@@H](Cc1ccccc1)C(=O)O [IPPF] (H-IPPF-OH)
32 | 33% | CC[C@H](C)[C@H](N)C(=O)N[C@@H](CCCNC(=N)N)C(=O)N1CCC[C@H]1C(=O)N[C@@H](Cc1ccccc1)C(=O)O [IRPF] (H-IRPF-OH)
33 | 28% | CC[C@H](C)[C@H](N)C(=O)N[C@H](C(=O)N1CCC[C@H]1C(=O)N[C@@H](Cc1ccccc1)C(=O)O)C(C)C [IVPF] (H-IVPF-OH)
34 | 40% | CC[C@H](C)[C@H](N)C(=O)N[C@@H](Cc1c[nH]c2ccccc12)C(=O)N1CCC[C@H]1C(=O)N[C@@H](Cc1ccccc1)C(=O)O [IWPF] (H-IWPF-OH)
35 | 87% | CC[C@H](C)[C@H](N)C(=O)N[C@@H](Cc1ccc(O)cc1)C(=O)N1CCC[C@H]1C(=O)N[C@@H](Cc1ccccc1)C(=O)O [IYPF] (H-IYPF-OH)

same assay, conditions: peptide 100 μM; 50 uM QFS, 1 M NaCl, 100 mM Tris-Cl pH 6.5, 37 °C, 1 h; triplicate; read-out: Inhibition (%) of ACE2, single and multiple residue substitution analogs (Table 2)

Row | inhibition at 100 µM | SMILES
36 | 77% | CC[C@H](C)[C@H](N)C(=O)N[C@@H](Cc1c[nH]cn1)C(=O)N[C@H](C(=O)N[C@@H](Cc1ccccc1)C(=O)O)C(C)C [IHVF] (H-IHVF-OH)
37 | 77% | CC[C@H](C)[C@H](N)C(=O)N[C@@H](Cc1ccc(O)cc1)C(=O)N[C@H](C(=O)N[C@@H](Cc1ccccc1)C(=O)O)C(C)C [IYVF] (H-IYVF-OH)

same assay, conditions: read-out: ACE2 inhibition of terminally modified IHPF analogs, 10 μM (Table 3, in brackets); peptide 10 μM; 50 uM QFS, 1 M NaCl, 100 mM Tris-Cl pH 6.5, 37 °C, 1 h

Row | inhibition at 10 µM | SMILES
38 | 40% | CC(C)[C@H](N)C(=O)N[C@@H](Cc1c[nH]cn1)C(=O)N[C@H](C(=O)N[C@@H](Cc1ccccc1)C(N)=O)C(C)C [C-amidated VHVF] (H-VHVF-NH2)
39 | 22% | CC[C@H](C)[C@H](N)C(=O)N[C@@H](Cc1c[nH]cn1)C(=O)N1CCC[C@H]1C(=O)N[C@@H](Cc1ccccc1)C(=O)O [IHPF, Ile-His-Pro-Phe, reference compound] (H-IHPF-OH)
40 | 35% | CC[C@H](C)[C@H](N)C(=O)N[C@@H](Cc1ccc(O)cc1)C(=O)N1CCC[C@H]1C(=O)N[C@@H](Cc1ccccc1)C(=O)O [IYPF] (H-IYPF-OH)

same assay, conditions: read-out: ACE2 inhibition of terminally modified IHPF analogs, 100 μM (Table 3); peptide 100 μM; 50 uM QFS, 1 M NaCl, 100 mM Tris-Cl pH 6.5, 37 °C, 1 h

Row | SMILES | inhibition at 100 µM
41 | NC(=O)[C@H](Cc1ccccc1)NC(=O)[C@@H]1CCCN1C(=O)[C@H](Cc1c[nH]cn1)NC(=O)[C@@H]1CCCN1 [C-amidated PHPF] (H-PHPF-NH2) | 1%
42 | CC(C)[C@H](NC(=O)[C@H](Cc1ccc(O)cc1)NC(=O)[C@@H]1CCCN1)C(=O)N[C@@H](Cc1ccccc1)C(N)=O [C-amidated PYVF] (H-PYVF-NH2) | 26%
43 | CC(C)[C@H](N)C(=O)N[C@@H](Cc1c[nH]cn1)C(=O)N[C@H](C(=O)N[C@@H](Cc1ccccc1)C(N)=O)C(C)C [C-amidated VHVF] (H-VHVF-NH2) | 86%

Results, then the molecule that gave them:

Row | inhibition at 100 µM | SMILES
44 | 18% | CC[C@H](C)[C@H](N)C(=O)N[C@@H](Cc1c[nH]cn1)C(=O)N1CCC[C@H]1C(=O)N[C@@H](Cc1ccccc1)C(N)=O [C-amidated IHPF] (H-IHPF-NH2)
45 | 12% | CC(C)[C@H](NC(=O)[C@H](Cc1c[nH]cn1)NC(=O)[C@@H]1CCCN1)C(=O)N[C@@H](Cc1ccccc1)C(N)=O [C-amidated PHVF] (H-PHVF-NH2)
46 | 66% | CC[C@H](C)[C@H](N)C(=O)N[C@@H](Cc1c[nH]cn1)C(=O)N1CCC[C@H]1C(=O)N[C@@H](Cc1ccccc1)C(=O)O [IHPF, Ile-His-Pro-Phe, reference compound] (H-IHPF-OH)
47 | 84% | CC[C@H](C)[C@H](N)C(=O)N[C@@H](Cc1ccc(O)cc1)C(=O)N1CCC[C@H]1C(=O)N[C@@H](Cc1ccccc1)C(=O)O [IYPF] (H-IYPF-OH)
